“And” between values parts separate entries of the source, which are not always exact repeats. Equal values may be shown once. Read-outs that look alike come from different tables or passages of the source.
Tests used:
[1] = system: murine macrophage J774.A1 cells; experiment: Nitric oxide (NO) inhibition in LPS-stimulated J774.A1 cells (Griess); format: cell-based; conditions: for prevention of LPS-induced NO release from J774.A1 macrophages: in words
Experimental: Murine monocytes (J774.A1 cells) produce measurable quantities of NO on exposure to LPS and provide a model for the rapid assessment of compounds to neutralize LPS activity. […] In all experiments, Polymyxin B (PMB), a decapeptide antibiotic, known to bind and neutralize LPS,^29;47;48 is used as a reference compound.
Nitric oxide production is measured as total nitrite in murine macrophage J774.A1 cells using the Griess reagent system.^53;54 Murine macrophage J774.A1 cells are grown in RPMI-1640 cell-culture medium containing L-glutamine and sodium bicarbonate and supplemented with 10% fetal bovine serum, 1% L-glutamine-penicillin-streptomycin solution, and 200 μg/ml L-arginine at 37° C. in a 5% CO2 atmosphere. Cells are plated at ˜2×10^6/ml in a volume of 40 μl/well, in 384 well, flat-bottomed, cell culture treated microtiter plates until confluency and subsequently stimulated with 100 ng/ml lipopolysaccharide (LPS). Concurrent to LPS stimulation, serially diluted concentrations of test compounds are added to the cell medium and left to incubate overnight for 16 h. Polymyxin B is used as reference compound in each plate. Positive—(LPS stimulation only) and negative-controls (J774.A1 medium only) are included in each experiment. Nitrite concentrations are measured adding 30 μl of supernatant to equal volumes of Griess reagents (50 μl/well; 0.1% NED solution in ddH2O and 1% sulfanilamide, 5% phosphoric acid solution in ddH2O) and incubating for 15 minutes at room temperature in the dark. Absorbance at 535 nm is measured using a Molecular Devices Spectramax M2 multifunction plate reader (Sunnyvale, Calif.). Nitrite concentrations are interpolated from standard curves obtained from serially diluted sodium nitrite standards.

NFκB = NFκB inhibition (LPS-induced); format: cell-based; conditions: for prevention of LPS-induced NFκβ cytokine release from stimulated lymphocytes: in words
Description: A focused library of alkyl or acyl c-substituted lysine-spermine conjugates is synthesized with even carbon-numbered chains of C14 to C20 lengths. […] Furthermore, the data showhigh activity compounds are those with chain lengths between C16 and C20. […] The exemplary compounds L-Lys-ε-(stearoyl)-N^1-spermine, D-Lys-ε-(stearoyl)-N^1-spermine, L-Lys-ε-(octadecanyl)-N^1-spermine and D-Lys-ε-(octadecanyl)—N1-spermine all show high activity for the prevention of LPS-induced NFκβ cytokine release from stimulated lymphocytes. Furthermore, the exemplary compounds L-Lys-ε-(stearoyl)-N^1-spermine, D-Lys-ε-(stearoyl)-N^1-spermine, L-Lys-ε-(octadecanyl)-N^1-spermine and D-Lys-ε-(octadecanyl)-N^1-spermine all show high activity for the prevention of LPS-induced NO release from stimulated lymphocytes.

[2] = format: binding, E. coli 0111:B4; conditions: for EC50: E. coli 0111:B4 LPS, Tables 1-3, read-out: ED50 (half-maximal effective displacement of BC probe from LPS)
Experimental: Polymyxin B (PMB), a peptide antibiotic known to bind and neutralize LPS^47 serves as the positive control and reference compound for every plate, enabling the quantitative assessment of repeatability and reproducibility (CV and Z′ factors) for the assay. Robotic liquid handling is performed on a Precision 2000 automated microplate pipetting system, programmed using the Precision Power software, Bio-Tek Instruments Inc., VT, USA. Stock solutions of LPS (5 mg/ml; E. coli 0111:B4; procured from Sigma) and BC (500 μM) are prepared in Tris buffer (pH 7.4, 50 mM). 1 ml each of the LPS and BC stocks are mixed and diluted in Tris buffer to a final volume of 100 ml, yielding final concentrations of 50 μg/ml of LPS and 5 μM BC. 40 μl of this BC:LPS mixture is added to each well of the plate using the Precision 2000. Fluorescence measurements are made at 25° C. on a Fluoromax-3 with Micromax Microwell 384-well plate reader, using DataMax software, Jobin Yvon Inc., N.J. The BC excitation wavelength is 580 nm, emission spectra are taken at 620 nm with both emission and excitation monochromator bandpasses set at 5 nm.

[3] = J774.A1 cells, 100 ng/ml LPS, 16 h, Tables 1-3, read-out: NO IC50
[4] = Mus musculus, J774.A1, 16 h, J774.A1 cells, 100 ng/ml LPS, 16 h, Tables 1-3, read-out: NO IC50
[5] = Table 7 focused library, NO inhibition, read-out: NO
[6] = Mus musculus, J774.A1, 16 h, read-out: NO IC50, J774.A1 cells, 100 ng/ml LPS, 16 h, Tables 1-3
[7] = Mus musculus, J774.A1, read-out: IC50 (LPS neutralization, NO)

Row | Structure (SMILES) | IC50 [1, 4] [µM] | EC50 [2] | IC50 [1, 5] [µM] | further results
1 | CCCCCCCCCCCCCCCCCCCC(=O)NCCCCC(N)C(=O)NCCCNCCCCNCCCN [Compound 7, L-Lys-ε-(eicosanoyl)-N^1-spermine] | 1.2 | 6.46 µM | – | IC50 [1, 3]: 1.21 µM; IC50 ([1]; Mus musculus, J774.A1, Table 7 focused library, NO inhibition, read-out: NO): 4.69 µM; IC50 (NFκB; Table 7 focused library, NFκB inhibition, read-out: NFκ B): 1.24 µM
2 | CCCCCC/C=C/CCCCCCCCCC(=O)NCCCCC(N)C(=O)NCCCNCCCCNCCCN (stereo not shown) [Compound 10] | – | 4.2 µM | – | –
3 | CCCCCCCCCCCCCCCCC(=O)NCCCCC(N)C(=O)NCCCNCCCCNCCCN [Compound 11, L-Lys-ε-(heptadecanoyl)-N^1-spermine] | 4.49 | 6.71 µM | – | –
4 | CCCCCCCCCCCCCCCCS(=O)(=O)NCCCCC(N)C(=O)NCCCNCCCCNCCCN [Compound 12, L-Lys-ε-(hexadecanesulfonamide)-N^1-spermine] | – | 5.93 µM | – | –
5 | CCCCCCCCCCCCCCCC(=O)NCCCCC(N)C(=O)NCCCNCCCCNCCCN [Compound 13, D-Lys-ε-(palmitoyl)-N^1-spermine] | – | 10 µM and 9.94 µM | 13 | IC50 [1, 3]: 2.29 µM
6 | CCCC/C=C/CCCCCCCCCC(=O)NCCCCC(N)C(=O)NCCCNCCCCNCCCN (stereo not shown) [Compound 15] | – | 3.8 µM and 3.82 µM | – | IC50 [1, 3]: 8.85 µM; IC50 [1, 6]: 8.8 µM
7 | CCCCCCCC(=O)NCCCCC(N)C(=O)NCCCNCCCCNCCCN [Compound 17, L-Lys-ε-(octanoyl)-N^1-spermine] | 160 | 13 µM | – | IC50 [1, 3]: 162 µM
8 | CC(C)C(=O)NCCCCC(N)C(=O)NCCCNCCCCNCCCN [Compound 18, D-Lys-ε-(isopropoyl)-N^1-spermine] | > 1000 | 299 µM | – | –
9 | CC(C)(C)C(=O)NCCCCC(N)C(=O)NCCCNCCCCNCCCN (stereo not shown) [Compound 19] | > 1000 | 327 µM | – | –
10 | NCCCNCCCCNCCCNC(=O)C(N)CCCCNC(=O)CC1CC2CCC1C2 [Compound 20, D-Lys-ε-(2-norbornaneacetoyl)-N^1-spermine] | – | 16.2 µM | – | –
11 | NCCCNCCCCNCCCNC(=O)C(N)CCCCNC(=O)c1ccc(-c2ccccc2)cc1 [Compound 21, D-Lys-ε-(4-biphenycarboxamide)-N^1-spermine] | – | 7.9 µM and 7.86 µM | – | IC50 [1, 3]: 124 µM; IC50 [1, 6]: > 100 µM
12 | NCCCNCCCCNCCCNC(=O)C(N)CCCCNC(=O)CCCc1ccc2ccc3cccc4ccc1c2c34 [Compound 22, L-Lys-ε-(4-(1-pyrene)-butanoyl)-N^1-spermine] | – | 7.1 µM and 7.09 µM | – | IC50 [1, 3]: 108 µM; IC50 [1, 6]: > 100 µM
13 | COCCOCCOCC(=O)NCCCCC(N)C(=O)NCCCNCCCCNCCCN [Compound 24, L-Lys-ε-(2-[2-(2-methoxyethoxy)ethoxy]acetoyl)-N^1-spermine] | > 1000 | 572 µM | – | IC50 [1, 7]: > 1000 µM
14 | COCCOCC(=O)NCCCCC(N)C(=O)NCCCNCCCCNCCCN [Compound 25, L-Lys-ε-(2-(2-methoxyethoxy)acetoyl)-N^1-spermine] | > 1000 | 495 µM | – | IC50 [1, 7]: > 1000 µM
15 | CCCC/C=C\CCCCCCCCCCNCCCCC(N)C(=O)NCCCNCCCCNCCCN (stereo not shown) [Compound 27] | 0.66 | 2.59 µM | – | IC50 ([2]; b47, cis-unsaturated vs saturated alkyl): 2.6 µM
16 | CCCCCCCNCCCCC(N)C(=O)NCCCNCCCCNCCCN (stereo not shown) [Compound 28] | – | 3.86 µM | – | IC50 [1, 3]: 82.3 µM
17 | CCCCCCCNCCCCC(N)C(=O)NCCCNCCCCNCCCN (stereo not shown) [Compound 29] | 46 | 5.99 µM | – | IC50 [1, 3]: 46.4 µM
18 | CCCCCCCN(CCCCCCC)CCCC[C@H](N)C(=O)NCCCNCCCCNCCCN [Compound 30, L-Lys-ε-(bis-(n-heptyl))-N^1-spermine] | – | 2.14 µM | – | IC50 [1, 3]: 38.8 µM
19 | CCCCCCNCCCCC(N)C(=O)NCCCNCCCCNCCCN (stereo not shown) [Compound 31] | > 1000 | 7.13 µM | – | –
20 | CC(C)=CCC[C@H](C)CCNCCCCC(N)C(=O)NCCCNCCCCNCCCN (stereo partly shown) [Compound 32] | > 1000 | 9.6 µM and 9.55 µM | – | –
21 | CC(C)(C)CCNCCCCC(N)C(=O)NCCCNCCCCNCCCN (stereo not shown) [Compound 33] | > 1000 | 12.1 µM | – | –

Row | Structure (SMILES) | IC50 [1, 4] [µM] | EC50 [2] | IC50 [1, 5] [µM] | further results
22 | CC(C)(C)CCNCCCCC(N)C(=O)NCCCNCCCCNCCCN [Compound 34, D-Lys-ε-(3,3-dimethyl-1-butyl)-N^1-spermine] | – | 10.9 µM | – | IC50 [1, 3]: 838 µM
23 | CC(C)CNCCCCC(N)C(=O)NCCCNCCCCNCCCN [Compound 35, D-Lys-ε-(3-methylpropyl)-N^1-spermine] | 72.9 | 101 µM | – | –
24 | NCCCNCCCCNCCCNC(=O)C(N)CCCCNCC1CCCCC1 (stereo not shown) [Compound 37] | > 1000 | 9.8 µM and 9.84 µM | – | –
25 | NCCCNCCCCNCCCNC(=O)C(N)CCCCN(CC1CCCCC1)CC1CCCCC1 [Compound 38, L-Lys-ε-(bis-(cyclohexyl))-N^1-spermine] | – | 4 µM and 4.04 µM | – | IC50 [1, 3]: > 1000 µM
26 | NCCCNCCCCNCCCNC(=O)C(N)CCCCNCc1ccc(-c2ccccc2)cc1 [Compound 39, D-Lys-ε-(4-phenylbenzyl)-N^1-spermine] | – | 3.7 µM and 3.71 µM | – | IC50 [1, 3]: 105 µM; IC50 [1, 6]: > 100 µM
27 | CCCCCCCCCCCCCC(=O)NCCCCC(N)C(=O)NCCCNCCCCNCCCN (stereo not shown) [Compound 41] | – | – | 26 | –
28 | CCCCCCCCCCCCCCCCCCCC(=O)NCCCCC(N)C(=O)NCCCNCCCCNCCCN (stereo not shown) [Compound 42] | – | – | 5.77 | –
29 | CCCCCCCCCCCCCCNCCCCC(N)C(=O)NCCCNCCCCNCCCN (stereo not shown) [Compound 43] | – | – | 6.17 | –
30 | CCCCCCCCCCCCCCCCCCNCCCC[C@H](N)C(=O)NCCCNCCCCNCCCN [Compound 44, L-Lys-ε-(octadecanyl)-N^1-spermine] | – | – | 2.25 | prevention of LPS-induced NO release from J774.A1 macrophages [1]: high activity; prevention of LPS-induced NFκβ cytokine release from stimulated lymphocytes (NFκB): high activity
31 | CCCCCCCCCCCCCCCCCCCCNCCCCC(N)C(=O)NCCCNCCCCNCCCN (stereo not shown) [Compound 45] | – | – | 3.67 | –
32 | CCCCCCCCCCCCCCNCCCCC(N)C(=O)NCCCNCCCCNCCCN (stereo not shown) [Compound 46] | – | – | 5.34 | –
33 | CCCCCCCCCCCCCCCCNCCCCC(N)C(=O)NCCCNCCCCNCCCN (stereo not shown) [Compound 47] | – | – | 6.89 | –
34 | CCCCCCCCCCCCCCCCCCNCCCC[C@@H](N)C(=O)NCCCNCCCCNCCCN [Compound 48, D-Lys-ε-(octadecanyl)-N^1-spermine] | – | – | 3.08 | prevention of LPS-induced NO release from J774.A1 macrophages [1]: high activity; prevention of LPS-induced NFκβ cytokine release from stimulated lymphocytes (NFκB): high activity
35 | CCCCCCCCCCCCCCCCCCCCNCCCCC(N)C(=O)NCCCNCCCCNCCCN (stereo not shown) [Compound 49] | – | – | 2.2 | –
36 | CCCCCCCCCCCCCC(=O)NCCCCCC(=O)NCCCNCCCCNCCCN [Compound 50] | – | – | 48.4 | –
37 | CCCCCCCCCCCCCCCCCC(=O)NCCCCCC(=O)NCCCNCCCCNCCCN [Compound 52] | – | – | 29.6 | –
38 | CCCCCCCCCCCCCCCCCCCC(=O)NCCCCCC(=O)NCCCNCCCCNCCCN [Compound 53] | – | – | 26.6 | –
39 | CCCCCCCCCCCCCCNCCCCCC(=O)NCCCNCCCCNCCCN [Compound 54] | – | – | 9.48 | –
40 | CCCCCCCCCCCCCCCCNCCCCCC(=O)NCCCNCCCCNCCCN [Compound 55] | – | – | 6.12 | –
41 | CCCCCCCCCCCCCCCCCCNCCCCCC(=O)NCCCNCCCCNCCCN [Compound 56] | – | – | 5.34 | –
42 | CCCCCCCCCCCCCCCCCCCCNCCCCCC(=O)NCCCNCCCCNCCCN [Compound 57] | – | – | 5.02 | –
